The test system of one data set is HEK293 cells. Description: Cell toxicity in HEK293 cells during labelling. The class given is cell-based. The settings on record: 100 μM, 24 h. The method, then: Briefly, HEK293 cells grown in DMEM+10% FBS media at 37° C. with 5% CO2 were transiently transfected with pT-Rex-DEST30-intein-EGFP-NLS or pT-Rex-DEST30-intein-ECFP-NLS using Polyfect™ (Qiagen, USA). See FIGS. 12ii. and iii., respectively, for in vivo intein cleavage for the expressed EGFP and ECFP proteins expressed in HEK293 cells. After 36 hours of protein expression, cells were washed in 1×PBS and cystine-free DMEM (Sigma) was added. The biotin-thioester probe, probe 5, was added to a final concentration of 100 μM (10-100 μM also worked) and cells were incubated for another 24 h. […] Cells were harvested by centrifugation at 1000 rpm for 10 min and resuspended in 1×PBS. Washings were repeated at least 3 times, and cells were lysed in PBS using glass beads. Magnetic streptavidin beads (Promega, USA) were used to pull-down all biotinylated proteins in the cell lysate. Beads were washed twice in 1× PBS, then boiled in 1×SDS loading buffer and loaded onto a 12% SDS-PAGE. Western blotting was used to assess biotinylated proteins, as described above.

The target in another data set is T1, N-terminal cysteine GST (Schistosoma japonicum, UniProt P08515).
T1 construct: Ssp DnaB intein tag (pTWIN2) (N, cleaved yes); expressed in transfected cells; host or cells: E. coli ER2566 transformed with pTWIN2-GST
T1 sequence (P08515 whole entry, added parts left off): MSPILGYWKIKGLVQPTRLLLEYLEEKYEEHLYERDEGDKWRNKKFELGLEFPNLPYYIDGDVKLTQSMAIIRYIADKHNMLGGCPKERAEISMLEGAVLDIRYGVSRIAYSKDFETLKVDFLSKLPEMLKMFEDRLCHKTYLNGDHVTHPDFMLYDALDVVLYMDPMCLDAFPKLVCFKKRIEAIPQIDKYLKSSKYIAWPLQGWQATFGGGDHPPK
The data set is described as follows: In vivo time-course labelling of N-terminal cysteine GST in live bacterial cells. The class given is cell-based, E. coli. The following applies: cells expressing labelled GST, FIG. 15. As to the method: To generate in vivo proteins having N-terminal cysteine residues, bacterial cells expressing N-terminal cysteine-containing proteins EGFP and GST fused to the C-terminus of the Ssp DnaB mini-intein were induced to undergo self-cleavage, releasing the N-terminal cysteine protein, then incubated with the probes over a period of 24 h.
Briefly, the above bacterial constructs were transformed into the E. coli expression strain ER2566 (NEB) and grown in 100 mg/L ampicillin containing LB media at 37° C. […]
For the time-course labelling experiments, a small sample of cells was removed at each time interval, quenched with 0.01M cysteine, and lysed by boiling with SDS loading buffer. The resulting sample was analyzed directly on a 12% SDS-PAGE. Fluorescence labelling was visualized with a Typhoon™ fluorescence scanner (Amersham Biosciences). Biotinylated proteins were detected by western blotting (with anti-biotin-HRP) with the Enhanced ChemiLuminescent™ kit (Amersham).
Results are shown in FIG. 13, where i=cells labelled with probe 2 (FL), ii=cells labelled with probe 3 (TMR) and iii=cells labelled with probe 5 (biotin) (lanes 1-8 are samples taken at 0 min, 10 min, 30 min, 1 h, 3 h, 6 h, 12 h and 24 h, respectively). The results of the 24 hour time-course are quantified in FIG. 14 (FL=♦, TMR=▪ and BIOTIN=▴).

In a further data set the target is N-terminal cysteine EGFP (Aequorea victoria, UniProt P42212, F64L/H231L/S65T). The following applies: labelled bacterial cells expressing EGFP, excitation 470±20 nm, emission 605±30 nm.
In data set [1] the test system is control proteins without N-terminal cysteine (GST, Protease, Lipase, Papain, Pepsin). The data set is described as follows: In vitro labelling of control proteins without an N-terminal cysteine (site-specificity). In kind it is biochemical. The following applies: 5 control proteins with no or only internal cysteines, 60 min incubation. As to the method:
Probes were prepared as 200 μM stocks (25× in DMSO) and stored at −20° C. In a typical labelling reaction, 6 μl of each probe (final concentration: 8 μM) was added to 50 μl of pure protein (1 mg/ml) dissolved in 1×PBS (final concentration of protein: ˜[…]), with or without 1 mM DTT, and the reaction was topped up with 1×PBS to a final volume of 150 μl. DTT was added to experiments, where live cells were used, to reduce background labelling. At specific time intervals, 15 μl of the reaction was withdrawn and quenched by addition of 1.7 μl of 100 mM cysteine to the reaction mixture (final concentration of cysteine: 10 mM), followed by denaturation with SDS-PAGE loading dye at 95° C. for 3 min. The loading dye also serves to hydrolyze the diacetate groups on probes 2 and 4, thereby releasing the fluorescence.
Probe 3 was used in the labelling reaction, and the reaction was performed as mentioned above with 60 min incubation time. All proteins are available from Sigma (St Louis, USA). (Lane 1. GST (cat #: G-4385); Lane 2. Protease (P-5380); Lane 3. Lipase (L-9031); Lane 4. Papain (P-4762); Lane 5. Pepsin (P-6887); Lane 6. BioRad Precision Plus Protein Standards).

Data set [2] has as its system N-terminal cysteine ECFP-NLS. The data set is described as follows: Fluorescence microscopy / FRET of HEK293 cells expressing N-terminal cysteine ECFP-NLS. In kind it is cell-based. The settings on record: HEK293 cells transfected with ECFP-NLS. The source says: Intein-fused EGFP and ECFP (enhanced cyan fluorescent protein) were constructed, in which an extra N-terminal cysteine was introduced into both EGFP and ECFP, as described above. To facilitate evaluation of the labelling, as well as to assess whether the strategy targets proteins expressed in subcellular compartments of mammalian cells (e.g. nucleus), a nuclear localization sequence (NLS) was fused to ECFP, generating ECFP-NLS. The intein-fused EGFP gene was amplified from the above bacterial construct, while the ECFP gene with a nuclear localization sequence (ECFP-NLS) was amplified from pECFP-Nuc (Clontech, USA) and cloned first into the pTWIN1 vector. Using the GATEWAY™ cloning system (Invitrogen, USA), the intein-fused genes were cloned into the donor vector pDONR201, followed by recombination of the cloned genes into a mammalian expression vector pT-Rex-DEST30 (Invitrogen). All constructs were sequence verified. […]
Fluorescence microscopy experiments were also performed using HEK293 mammalian cells. […] The fluorescence images were obtained using the excitation and emission channels described above for the bacterial experiments.

Each structure is given as a SMILES string.

Experimental for N-terminal cysteine EGFP: The FRET channel for CFP/TMR pair was recorded using filters with an excitation: 436±20 nm and emission: 620±20 nm (Chroma). The FRET channel for GFP/TMR pair was using filters with excitation=470±20 nm and emission=605±30 nm (Zeiss).

As to `O=C(CCCCC1SCC2NC(=O)NC21)NCC(=O)SCc1ccccc1` (stereo not drawn) [Probe 5, [5-(2-oxo-hexahydro-thieno[3,4-d]imidazol-6-yl)-pentanoylamino]-thioacetic acid S-benzyl ester], the cell toxicity entry in the data set on HEK293 cells was “No cell toxicity was observed”.

As to `O=C(CNC(=O)c1ccc(C2=C3C=CC(O)C=C3Oc3cc(O)ccc32)c(C(=O)O)c1)SCc1ccccc1` (stereo not drawn) [Probe 2, N-benzylsulfanylcarbonylmethyl-6-(3,6-dihydroxy-3H-xanthen-9-yl)-isophthalamic acid], at N-terminal cysteine GST, the “specificity of labelling inside the live cell (SDS-PAGE)” value is given as “only the desired protein was labelled specifically, as well as covalently, inside the live cell, with little or no background observed”.

Take `CN(C)c1ccc2c(c1)Oc1cc(N(C)C)ccc1C21OC(=O)c2cc(C(=O)NCC(=O)SCc3ccccc3)ccc21` [Probe 3, amino thioacetic acid S-benzyl ester of 5-carboxy-tetramethylrhodamine]: the FRET signal result at N-terminal cysteine EGFP is on record as “a clear FRET signal was observed”; in data set [2] (excitation 436±10 nm, emission 620±30 nm) it was “clear FRET signal in the nucleus of the labelled cells”. The site-specificity of labelling entry in data set [1] is listed as “labelling occurred ONLY with proteins possessing an N-terminal cysteine”. In data set [2] (100 μM probe, 24 h), the localization of labelling entry is “the majority of the labelling occurred inside the nucleus”.

The values above are taken from patent US7449558B2, “Site-specific labelling of proteins” (National University of Singapore, priority 2003, dated 2008).
